Measurements taken from the NIST ThermoML archive (doi:10.1021/acs.jced.8b00309).
± gives the expanded uncertainty stated by the source.

Settings: Crystal

Cc1ncc(COP(=O)(O)O)c(C=O)c1O.O [pyridoxal 5-phosphate hydrate]
mass density (293 K, 101.33 kPa, Pycnometric method): 1536 ± 5 kg/m3 | Normal melting temperature (DTA): 148.56 ± 0.5 °C
